Results as given in patent US9273095B2, “Antibiotic peptide and preparation method therefor and application therefor” (priority 2011, dated 2016).
Where two headings read alike, the source gives them in different places. Non-standard residues stand in square brackets, D forms with d. No end group written: not given here.

Columns and labels:
Shigella flexneri = test: microbe, parasite or virus in culture; format: cell-based
Description: (§1) The experimental strains are 37 standard strains preserved in lab and clinical isolated bacteria, including drug-resistant bacteria and quality-control bacteria selecting Staphylococcus aureus ATCC29213, Enterococcus faecalis ATCC29212, Escherichia coli ATCC25922, Pseudomonas aeruginosa ATCC27853 and klebsiella pneumoniae ATCC700603.
(§2) (1) Sensitivity test is conducted with two-fold agar dilution method and Denlay multipoint inoculator. Test bacteria are cultured with nutrient broth and brain heart infusion.
(§3) (2) The drug is double diluted into different concentration with MH broth after dissolved and then placed in the plate respectively.
(§4) (3) After dissolved, MH agar culture medium are injected into the plate with drug quantitatively and mixed to make the final concentration of drug are 0.03, 0.06, 0.125, . . . , 128 μg/ml respectively.
(§5) (4) After solidification of the culture medium in the plate, test bacteria (10^4CFU/point) are inoculated by multipoint inoculator and cultured for 18 hours at constant 35° C. Then observe the results.

[1] = tested on: Acinetobacter calcoaceticus; test: microbe, parasite or virus in culture; format: cell-based
Description: as §1, §2, §3, §4, §5

Serratia marcescens = test: microbe, parasite or virus in culture; format: cell-based
Description: as §1, §2, §3, §4, §5

Shigella sonnei = test: microbe, parasite or virus in culture; format: cell-based; conditions: Shigella sonnei strains 51592
Description: as §1, §2, §3, §4, §5

Salmonella typhimurium = test: microbe, parasite or virus in culture; format: cell-based; conditions: murium
Description: as §1, §2, §3, §4, §5

Staphylococcus aureus = test: microbe, parasite or virus in culture; format: cell-based
Description: as §1, §2, §3, §4, §5

Escherichia coli = test: microbe, parasite or virus in culture; format: cell-based; conditions: 08-5 (ESBLs) Extended Spectyumβ-lactamase
Description: as §1, §2, §3, §4, §5

Enterobacter aerogenes = test: microbe, parasite or virus in culture; format: cell-based
Description: as §1, §2, §3, §4, §5

Feilaoti citrobacter = test: microbe, parasite or virus in culture; format: cell-based
Description: as §1, §2, §3, §4, §5

Proteus vulgaris = test: microbe, parasite or virus in culture; format: cell-based
Description: as §1, §2, §3, §4, §5

[2] = tested on: Staphylococcus epidermidis; test: microbe, parasite or virus in culture; format: cell-based
Description: as §1, §2, §3, §4, §5

Typhoid bacillus H901 = test: microbe, parasite or virus in culture; format: cell-based
Description: as §1, §2, §3, §4, §5

Enterobacter cloacae = test: microbe, parasite or virus in culture; format: cell-based
Description: as §1, §2, §3, §4, §5

Shigella = test: microbe, parasite or virus in culture; format: cell-based
Description: as §1, §2, §3, §4, §5

[3] = tested on: red cell suspension from healthy volunteers; test: Hemolytic activity test; format: cell-based, human; conditions: for Hemolytic activity, absorbancy (OD value) at 570 nm: 4 hours at 37° C., OD higher than 0.1 is hemolytic, n = 3
Description: (1) Samples are serial diluted with sterile PBS to 1000, 500, 250, 125, 64, 32, 16, 8, 4 μg/ml in turn and spread in 96-well plates, 100 μl per orifice.
(2) We use distilled water as positive control, sterile PBS as negative control and blank orifice with 200 μl PBS solution added. Each concentration above is made in triplicate.
(3) We take 3 ml whole blood from healthy volunteers and washed it with sterile PBS three times to prepare fresh 2% concentration red cell suspension. Then we added 100 μl red cell suspension into each orifice and made them cultured for 4 hours at 37° C. in the incubator. After centrifuged by plate-swashing centrifuge, the supernatant liquid is collected and measured absorbancy (OD value) at a wavelength of 570 nm. Then we compared the hemolytic efficiency of these concentrations.
(4) According to the documents standard, OD value which is higher than 0.1 is hemolytic concentration.

aspergillus fumigatus = test: microbe, parasite or virus in culture; format: cell-based
Description: (§6) • (1) Test strains: monilia albicans (candida albicans), candida glabrata, candida krusei, candida tropicalis, aspergillus fumigatus and flavous. Antimicrobial peptides PL-13 (SEQ ID NO: 1) under test are supplied by Jiangsu ProteLight Pharmaceutical & Biotechnology Co., LTD. […] Activation of bacterial strains is conducted at a humidity level of 60% and 25° C. (for aspergillus) or 37° C. (for candida). (2) 0.9% stroke-physiological saline solution comprising 0.5% Tween-80 is used to prepare bacterial suspension for experiment. Hemocytometer is utilized to adjust concentration of the bacterial suspension to 1-3×10^6 CFU/ml (0.5 McFarland units) to make stock solution in reserve at -20° C. During the sensitivity test, the RPMI-1640 liquid medium is diluted 1000 times to 1-3×10^3 CFU/ml. (3) The RPMI-1640 liquid is utilized as diluent to 10-fold dilute stock solution of peptides. […] The eleventh orifice is used as living control orifice, while the twelfth one as blank control. (4) The RPMI-1640 liquid is utilized as diluent to 10-fold dilute stock solution of FCZ and ICZ. […] Ditto for other operations.

aspergillus flavous = test: microbe, parasite or virus in culture; format: cell-based
Description: as §6

candida krusei = test: microbe, parasite or virus in culture; format: cell-based
Excerpt: • (1) Test strains: monilia albicans (candida albicans), candida glabrata, candida krusei, candida tropicalis, aspergillus fumigatus and flavous. (2) Quality control strains: candida krusei JLC30366 (ATCC6258). Antimicrobial peptides PL-13 (SEQ ID NO: 1) under test are supplied by Jiangsu ProteLight Pharmaceutical & Biotechnology Co., LTD. […] (1) The bacterial strains which preserved on PDA slant are respectively inoculated onto PDA plate and slant medium. Activation of bacterial strains is conducted at a humidity level of 60% and 25° C. (for aspergillus) or 37° C. (for candida). (2) 0.9% stroke-physiological saline solution comprising 0.5% Tween-80 is used to prepare bacterial suspension for experiment. Hemocytometer is utilized to adjust concentration of the bacterial suspension to 1-3×10^6 CFU/ml (0.5 McFarland units) to make stock solution in reserve at -20° C. During the sensitivity test, the RPMI-1640 liquid medium is diluted 1000 times to 1-3×10^3 CFU/ml. (3) The RPMI-1640 liquid is utilized as diluent to 10-fold dilute stock solution of peptides. […] The eleventh orifice is used as living control orifice, while the twelfth one as blank control. (4) The RPMI-1640 liquid is utilized as diluent to 10-fold dilute stock solution of FCZ and ICZ. […] Ditto for other operations.

PL-40 (SEQ ID NO: 18) = test: RP-HPLC temperature profiling 5-80 C, normalised to random coil peptide C; self-association of the peptide with itself
PL-34 (SEQ ID NO: 6) = test: as above

With Ac-FKKLKKLFSKLLNLK-NH2 [PL-26] the MIC (Shigella flexneri) was 1.3 µM, the MIC [1] was 6.7 µM and the MIC (Serratia marcescens) was 0.02 µM. It also gave an MIC (Shigella sonnei) of 1.3 µM, an MIC (Salmonella typhimurium) of 5.3 µM and an MIC (Staphylococcus aureus; 08-49(MSSA) Meticillin susceptible staphylococcus aureus) of 1.3 µM. It also gave an MIC (Staphylococcus aureus; 08-52(MRSA) Methicillin-resistant staphylococcus aureus) of 1.3 µM, an MIC (Staphylococcus aureus; Staphylococcus aureus ATCC25923) of 1.3 µM and an MIC (Staphylococcus aureus; Staphylococcus aureus ATCC29213) of 1.3 µM. It also gave an MIC (Staphylococcus aureus; strain 15 (listed under Staphylococcus aureus)) of 1.3 µM, an MIC (Escherichia coli) of 1.3 µM and an MIC (Enterobacter aerogenes) of 1.3 µM. For the same molecule, the MIC (Feilaoti citrobacter) was 2.7 µM, the MIC (Proteus vulgaris) was 6.7 µM and the MIC [2] was 0.7 µM. For the same molecule, the MIC ([2]; 08-17 (MSSE) Meticillin susceptible staphylococcus epidermidis) was 2.7 µM, the MIC ([2]; 08-18 (MRSE) Methicillin-resistant staphylococcus epidermidis) was 2.7 µM and the MIC (Typhoid bacillus H901) was 2.7 µM. For the same molecule, the MIC (Enterobacter cloacae) was 1.7 µM, the MIC (Shigella) was 0.3 µM and the “Hemolytic activity, absorbancy (OD value) at 570 nm” value (from here on “Hemolytic activity, absorbancy”) ([3]; peptide 7.8125 μg/ml) was 0.020. The “Hemolytic activity, absorbancy” value ([3]; peptide 15.625 μg/ml) was 0.047, the “Hemolytic activity, absorbancy” value ([3]; peptide 31.25 μg/ml) was 0.057 and the “Hemolytic activity, absorbancy” value ([3]; peptide 62.5 μg/ml) was 0.068. The “Hemolytic activity, absorbancy” value ([3]; peptide 125 μg/ml) was 0.075, the “Hemolytic activity, absorbancy” value ([3]; peptide 250 μg/ml) was 0.089 and the “Hemolytic activity, absorbancy” value ([3]; peptide 500 μg/ml) was 0.121. For the same molecule, the “Hemolytic activity, absorbancy” value ([3]; peptide 1000 μg/ml) was 0.327, the “hemolytic toxicity (in words)” value ([3]; summary of Table 9) was “little hemolytic toxicity” and the Minimal inhibitory concentration (aspergillus fumigatus) was 32 µg/mL. It also gave a Minimal inhibitory concentration (aspergillus flavous) greater than 64 µg/mL and a Minimal inhibitory concentration (candida krusei) of 8 µg/mL.

For [dK][dL][dK][dK][dL][dF][dS][dK][dL][dW][dN][dW][dK] [PL-40 (SEQ ID NO: 18)], the PA (self-association parameter) (PL-40 (SEQ ID NO: 18)) was 0.55 min.

[dF][dK][dK][dL][dK][dK][dK][dF][dS][dK][dL][dW][dN][dW][dK] [PL-34 (SEQ ID NO: 6)] was tested, and the PA (self-association parameter) (PL-34 (SEQ ID NO: 6)) was 0.81 min.
